Data: patent EP1561465A2, “Methods of use of fluoroquinolone compounds against bacteria” (LG Life Sciences, Ltd., priority 1999, dated 2001)
Like-named read-outs stand apart in the source and are kept apart here.

Columns and labels:
Experiment in all cases: MIC by NCCLS reference broth microdilution, 450 respiratory tract pathogens
Type in all cases: cell-based
Streptococcus pneumoniae = settings: Streptococcus pneumoniae
Streptococcus pyogenes = settings: Streptococcus pyogenes
Haemophilus influenzae = tested on: Haemophilus influenzae
Moraxella catarrhalis = tested on: Moraxella catarrhalis
Staphylococcus aureus = tested on: Staphylococcus aureus
Klebsiella pneumoniae = settings: for MIC50 / MIC90: Klebsiella pneumoniae
[1] = Streptococcus pneumoniae (n = 100)
[2] = erythromycin resistant M phenotype (n = 16)
[3] = erythromycin resistant MLSB phenotype (n = 16)
[4] = penicillin intermediate (n = 16)
[5] = penicillin susceptible (n = 20)
[6] = Streptococcus pyogenes (n = 100)
[7] = erythromycin resistant C phenotype [MLSB] (n = 20)
[8] = erythromycin resistant I phenotype [MLSB] (n = 20)
[9] = erythromycin resistant M phenotype (n = 20)
[10] = Haemophilus influenzae, Haemophilus influenzae (n = 100)
[11] = Haemophilus influenzae, β-lactamase negative (n = 80)
[12] = Haemophilus influenzae, β-lactamase positive (n = 20)
[13] = β-lactamase positive and erythromycin resistant (n = 10)
[14] = extended spectrum β-lactamase negative (n = 30)
[15] = extended spectrum β-lactamase positive (n = 20)

NC1CCN(c2c(F)cc3c(=O)c(C(=O)O)cn(C4CC4)c3c2Cl)C1 (stereo not shown) [Clinafloxacin, clinafloxacin]
≤0.0075 to 0.12 µg/mL: MIC Range (Klebsiella pneumoniae; [14])
0.03 µg/mL: MIC50 (Streptococcus pyogenes; [9]) | MIC50 (Streptococcus pyogenes; fully susceptible (n = 20)) | MIC50 (Streptococcus pyogenes; multi-drug resistant (n = 20))
0.015 to 0.06 µg/mL: MIC (Streptococcus pyogenes; [9])
0.015 µg/mL: MIC90 (Moraxella catarrhalis; Moraxella catarrhalis (n = 50)) | MIC90 (Moraxella catarrhalis; β-lactamase negative (n = 13)) | MIC90 (Moraxella catarrhalis; β-lactamase positive (n = 37)) | MIC50 (Klebsiella pneumoniae; Klebsiella pneumoniae (n = 50)) | MIC90 (Klebsiella pneumoniae; [14])
≤ 0.0075 µg/mL: MIC50 (Haemophilus influenzae; [11]) | MIC90 (Haemophilus influenzae; Haemophilus influenzae, β-lactamase negative (n = 80), read-out: MIC90) | MIC50 (Haemophilus influenzae; [12]) | MIC90 (Haemophilus influenzae; Haemophilus influenzae, β-lactamase positive (n = 20), read-out: MIC90) | MIC50 (Klebsiella pneumoniae; [14]) | MIC50 (Klebsiella pneumoniae; [15])
≤0.00075 µg/mL: MIC90 (Haemophilus influenzae; Haemophilus influenzae (n = 100))
0.03 to 0.12 µg/mL: MIC (Streptococcus pneumoniae; [2]) | MIC (Streptococcus pneumoniae; [3]) | MIC (Streptococcus pyogenes; [7]) | MIC (Streptococcus pyogenes; fully susceptible (n = 20))
0.03 to 0.25 µg/mL: MIC (Streptococcus pneumoniae; [1])
0.25 µg/mL: MIC90 (Streptococcus pneumoniae; penicillin resistant (n = 18)) | MIC90 (Staphylococcus aureus; Staphylococcus aureus (n = 50)) | MIC90 (Staphylococcus aureus; β-lactamase negative (n = 20)) | MIC90 (Staphylococcus aureus; β-lactamase positive (n = 20)) | MIC90 (Staphylococcus aureus; [13])
0.06 µg/mL: MIC50 (Streptococcus pneumoniae; [1]) | MIC50 (Streptococcus pneumoniae; [2]) | MIC50 (Streptococcus pneumoniae; [3]) | MIC50 (Streptococcus pneumoniae; [5]) | MIC50 (Streptococcus pyogenes; [6]) | MIC90 (Streptococcus pyogenes; [6]) | MIC50 (Streptococcus pyogenes; [7]) | MIC50 (Streptococcus pyogenes; [8]) | MIC90 (Streptococcus pyogenes; [8]) | MIC90 (Streptococcus pyogenes; [9]) | MIC90 (Streptococcus pyogenes; fully susceptible (n = 20)) | MIC90 (Streptococcus pyogenes; multi-drug resistant (n = 20))
1 µg/mL: MIC90 (Klebsiella pneumoniae; Klebsiella pneumoniae (n = 50)) | MIC90 (Klebsiella pneumoniae; [15])
0.12 µg/mL: MIC90 (Streptococcus pneumoniae; [1]) | MIC90 (Streptococcus pneumoniae; [2]) | MIC90 (Streptococcus pneumoniae; [3]) | MIC50 (Streptococcus pneumoniae; multi-drug resistant (n = 16)) | MIC90 (Streptococcus pneumoniae; multi-drug resistant (n = 16)) | MIC50 (Streptococcus pneumoniae; [4]) | MIC90 (Streptococcus pneumoniae; [4]) | MIC50 (Streptococcus pneumoniae; penicillin resistant (n = 18)) | MIC90 (Streptococcus pneumoniae; [5]) | MIC90 (Streptococcus pyogenes; [7]) | MIC50 (Staphylococcus aureus; Staphylococcus aureus (n = 50)) | MIC50 (Staphylococcus aureus; β-lactamase negative (n = 20)) | MIC50 (Staphylococcus aureus; β-lactamase positive (n = 20)) | MIC50 (Staphylococcus aureus; [13])
≤ 0.00075 µg/mL: MIC50 (Haemophilus influenzae; [10]) | MIC90 (Haemophilus influenzae; Haemophilus influenzae, Haemophilus influenzae (n = 100), read-out: MIC90)
0.06 to 0.12 µg/mL: MIC (Streptococcus pneumoniae; multi-drug resistant (n = 16)) | MIC (Streptococcus pneumoniae; [4])
0.03 to 0.06 µg/mL: MIC (Streptococcus pyogenes; [8]) | MIC (Streptococcus pyogenes; multi-drug resistant (n = 20))
0.0075 to 0.06 µg/mL: MIC (Haemophilus influenzae; [10]) | MIC (Haemophilus influenzae; [11])
0.0075 to 0.25 µg/mL: MIC (Haemophilus influenzae; [12])
≤ 0.00375 µg/mL: MIC50 (Moraxella catarrhalis; Moraxella catarrhalis (n = 50)) | MIC50 (Moraxella catarrhalis; β-lactamase negative (n = 13)) | MIC50 (Moraxella catarrhalis; β-lactamase positive (n = 37))
0.06 to 0.25 µg/mL: MIC (Streptococcus pneumoniae; penicillin resistant (n = 18)) | MIC (Staphylococcus aureus; Staphylococcus aureus (n = 50)) | MIC (Staphylococcus aureus; β-lactamase negative (n = 20)) | MIC (Staphylococcus aureus; β-lactamase positive (n = 20)) | MIC (Staphylococcus aureus; [13])
0.015 to 0.12 µg/mL: MIC (Streptococcus pneumoniae; [5]) | MIC (Streptococcus pyogenes; [6])
≤0.0075 to 1 µg/mL: MIC Range (Klebsiella pneumoniae; Klebsiella pneumoniae (n = 50)) | MIC Range (Klebsiella pneumoniae; [15])
0.00375 to 0.015 µg/mL: MIC (Moraxella catarrhalis; Moraxella catarrhalis (n = 50)) | MIC (Moraxella catarrhalis; β-lactamase negative (n = 13)) | MIC (Moraxella catarrhalis; β-lactamase positive (n = 37))
